Laboratory results from article PMC3156232, “Rapid Probing of Biological Surfaces with a Sparse-Matrix Peptide Library” (PLoS ONE, 2011).
Entries after “also recorded” stand apart in the source; their conditions may differ.

Assays:
[1] = Tooth section binding by confocal laser scanning microscopy; conditions: sectioned human teeth, FAM-labeled peptide, CLSM; result in words
Text: For tooth binding assays, FAM-labeled pilot matrix peptides were collected into four pools of 9 peptides each. Peptides were screened by exposing pools to sections taken from a collection of anonymous human teeth (extracted during normal clinical practice), followed by visualization of the samples by Confocal Laser Scanning Microscopy (CLSM).

S. aureus = experiment: Fluorescence microscopy screening of FAM-labeled peptides against immobilized cells; type: binding, Staphylococcus aureus; conditions: FAM-labeled peptide 25 µM, 10 minutes, washed, result in words
Description: (§1) Peptide samples were prepared at a concentration of 25 µM for screening. For bacterial and yeast binding assays, cells were grown overnight, washed, and immobilized in a polylysine-coated 96-well plate, except in the case of S. mutans biofilms, where 10^5 cells were inoculated into 400 µl of Todd Hewitt broth in 48-well plates and biofilms were grown anaerobically for 24 hr. FAM-labeled peptides were applied to immobilized cell, yeast, and bacterial cultures, incubated for 10 minutes and washed extensively to remove unbound peptide. Samples were visualized by fluorescence microscopy (Nikon E400). For each peptide, both brightfield and fluorescence images were collected with the manufacturer-supplied software (SPOT, Diagnostic Instruments, Sterling Heights, MI). Post-collection, the locations of cells and background regions were determined using the brightfield images; those regions were then selected in the fluorescence images for quantitation of pixel values for determination of relative fluorescence intensities using The GIMP (http://www.gimp.org), [33]. Due to the variation in the levels of binding of the peptide to the well, these values are represented as bacterial fluorescence/background fluorescence, in order to remove the effects of precipitation or nonspecific binding from the final measurement.

wild type M. xanthus = experiment: as above; type: binding, Myxococcus xanthus; conditions: FAM-labeled peptide 25 µM, 10 minutes, result in words
Description: as §1

[2] = system: wild type S. mutans (UA140); experiment: Fluorescence microscopy binding to S. mutans; parameters: species or system Streptococcus mutans; conditions: FAM-labeled peptide, result in words
Description: as §1

S. mutans gtfB mutant = experiment: Fluorescence microscopy binding to surface mutant; parameters: species or system Streptococcus mutans; conditions: FAM-labeled peptide, result in words
Description: as §1

Row | Sequence | Binding to tooth dentin [1] | Binding to tooth enamel and enamel-proximal region of the dentino-enamel junction [1] | Binding to immobilized S. aureus cells (fluorescence staining) (S. aureus) | Binding to wild-type M. xanthus cells (fluorescence staining) (wild type M. xanthus) | Binding to wild type S. mutans [2] | Binding to S. mutans gtfB mutant unable to synthesize extracellular glucan (S. mutans gtfB mutant)
1 | AMKDAMERM [Pilot Library E4] | no obvious binding | clear binding | preferentially binds | preferentially binds | – | –
2 | AMQDAMNEM [Pilot Library E6] | bound selectively to dentin | – | – | – | – | –
3 | IWHSWISTW [sma24] | – | – | – | – | good binding activity and specificity; also recorded: strong binding | reduced binding
